pIC50, pKd: −log10 of the molar value.
What was measured:
[1] = biological target: T1, Recombinant human His-tagged Trim24-PHD-bromodomain (Homo sapiens, UniProt O15164); experiment: Trim24 AlphaScreen Assay; type: binding; conditions: 5 nM Trim24 protein, 15 nM biotinylated H3K23ac (1-33aa) peptide
T1 construct: Recombinant human His-tagged Trim24-PHD-bromodomain (produced in-house); made in house
T1 sequence (O15164 824-1006 limits assumed): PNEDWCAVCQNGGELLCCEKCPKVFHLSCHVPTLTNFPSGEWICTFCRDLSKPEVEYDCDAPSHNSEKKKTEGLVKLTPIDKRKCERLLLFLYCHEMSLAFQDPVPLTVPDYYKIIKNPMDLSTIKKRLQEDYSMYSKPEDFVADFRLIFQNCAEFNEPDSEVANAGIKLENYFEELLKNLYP
Summary of the method: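 AlphaScreen read-out after 2 h with streptavidin donor and Ni-chelate acceptor beads at 10 ug/mL each, following 1 h room-temperature incubation of compound, His-tagged PHD-bromodomain protein and biotin-H3K23ac (1-33aa) peptide in Hepes pH 7.5 buffer with NaCl and Triton X-100. Signals normalised between no-compound and no-protein wells; IC50 from four-parameter logistic curves.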

TRIM24 = biological target: T2, TRIM24 (Homo sapiens, UniProt O15164); experiment: BROMOscan DiscoveRx Binding Constant Assay (TRIM24); conditions: qPCR readout
T2 construct: purchased DiscoveRx (BROMOscan); host or cells: T7 phage in E. coli host derived from BL21
T2 sequence (O15164 899-1004 limits assumed): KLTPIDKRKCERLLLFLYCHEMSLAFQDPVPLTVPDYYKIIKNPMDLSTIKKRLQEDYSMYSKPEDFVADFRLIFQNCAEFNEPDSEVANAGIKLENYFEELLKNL
Excerpt: (§1) Compounds that bind the bromodomain active site and directly (sterically) or indirectly (allosterically) prevent bromodomain binding to the immobilized ligand, will reduce the amount of protein captured on the solid support (Panels A & B). […] Screening “hits” are identified by measuring the amount of bromodomain captured in test versus control samples by using a quantitative, precise and ultra-sensitive qPCR method that detects the associated DNA label. In a similar manner, dissociation constants (Kd's) for test compound-bromodomain interactions are calculated by measuring the amount of bromodomain captured on the solid support as a function of the test compound concentration.
(§2) Bromodomain assays. T7 phage strains displaying bromodomains were grown in parallel in 24-well blocks in an E. coli host derived from the BL21 strain. E. coli were grown to log-phase and infected with T7 phage from a frozen stock (multiplicity of infection=0.4) and incubated with shaking at 32° C. until lysis (90-150 minutes). The lysates were centrifuged (5,000×g) and filtered (0.2 μm) to remove cell debris. Streptavidin-coated magnetic beads were treated with biotinylated small molecule or acetylated peptide ligands for 30 minutes at room temperature to generate affinity resins for bromodomain assays. The liganded beads were blocked with excess biotin and washed with blocking buffer (SeaBlock (Pierce), 1% BSA, 0.05% Tween 20, 1 mM DTT) to remove unbound ligand and to reduce non-specific phage binding. […] Test compounds were prepared as 1000× stocks in 100% DMSO and subsequently diluted 1:10 in monoethylene glycol (MEG) to create stocks at 100× the screening concentration (resulting stock solution is 10% DMSO/90% MEG). The compounds were then diluted directly into the assays such that the final concentration of DMSO and MEG were 0.1% and 0.9%, respectively. All reactions were performed in polystyrene 96-well plates in a final volume of 0.135 ml.
(§3) The beads were then re-suspended in elution buffer (lx PBS, 0.05% Tween 20, 2 μM nonbiotinylated affinity ligand) and incubated at room temperature with shaking for 30 minutes. The bromodomain concentration in the eluates was measured by qPCR.
(§4) An 11-point 3-fold serial dilution of each test compound was prepared in 100% DMSO at 1000× final test concentration. This serial is then diluted to 100× in ethylene glycol and subsequently diluted to 1× in the assay (final DMSO concentration=0.1%, Ethylene glycol concentration=0.9%). […] If the initial Kd determined was <0.169 nM (the lowest concentration tested), the measurement was repeated with a serial dilution starting at a lower top concentration.
(§5) Binding constants (Kd's) were calculated with a standard dose-response curve using the Hill equation: Response=Background+Signal−Background 1+(Kd Hill Slope/DoseHill Slope) The Hill Slope was set to −1. Curves were fitted using a non-linear least square fit with the Levenberg-Marquardt algorithm.

BRPF2 = biological target: T3, BRPF2 (Homo sapiens, UniProt O95696); experiment: BROMOscan DiscoveRx Binding Constant Assay (BRPF2); conditions: qPCR readout
T3 construct: purchased DiscoveRx (BROMOscan); host or cells: T7 phage in E. coli host derived from BL21
T3 sequence (O95696 562-666 limits assumed): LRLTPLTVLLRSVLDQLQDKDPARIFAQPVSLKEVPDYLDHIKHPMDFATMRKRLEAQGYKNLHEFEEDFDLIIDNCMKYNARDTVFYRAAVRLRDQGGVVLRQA
Excerpt: as §1, §2, §3, §4, §5

BRPF3 = biological target: T4, BRPF3 (Homo sapiens, UniProt Q9ULD4); experiment: BROMOscan DiscoveRx Binding Constant Assay (BRPF3); conditions: qPCR readout
T4 construct: purchased DiscoveRx (BROMOscan); host or cells: T7 phage in E. coli host derived from BL21
T4 sequence (Q9ULD4 589-693 limits assumed): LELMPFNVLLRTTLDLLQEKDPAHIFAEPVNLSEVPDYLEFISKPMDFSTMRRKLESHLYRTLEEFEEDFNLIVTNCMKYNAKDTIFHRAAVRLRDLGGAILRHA
Excerpt: as §1, §2, §3, §4, §5

BRPF1 = biological target: T5, BRPF1 (Homo sapiens, UniProt P55201); experiment: BROMOscan DiscoveRx Binding Constant Assay (BRPF1); conditions: qPCR readout
T5 construct: purchased DiscoveRx (BROMOscan); host or cells: T7 phage in E. coli host derived from BL21
T5 sequence (P55201 628-732 limits assumed): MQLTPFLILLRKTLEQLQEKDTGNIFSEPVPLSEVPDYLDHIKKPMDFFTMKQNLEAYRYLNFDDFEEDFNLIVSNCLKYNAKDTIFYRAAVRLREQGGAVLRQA
Excerpt: as §1, §2, §3, §4, §5

pKd (TRIM24)	pKd (BRPF2)	pKd (BRPF3)	pKd (BRPF1)	SMILES	pIC50 [1]
> 9.00	8.00 to 9.00	7.00 to 7.96	8.00 to 9.00	CCCOc1cc(OCCCCCCN)cc(Oc2cc3c(cc2NS(=O)(=O)c2cn(C)cn2)n(C)c(=O)n3C)c1 [Example 8, N-(6-(3-((6-aminohexyl)oxy)-5-propoxyphenoxy)-1,3-dimethyl-2-oxo-2,3-dihydro-1H-benzo[d]imidazol-5-yl)-1-methyl-1H-imidazole-4-sulfonamide 2,2,2-trifluoroacetate]	8.00 to 9.00
7.00 to 7.96	7.00 to 7.96	< 7.00	7.00 to 7.96	COCCCOc1cccc(Oc2cc3c(cc2NS(=O)(=O)c2cn(C)c(C)n2)n(C)c(=O)n3C)c1 [Example 46, N-(6-(3-(3-methoxypropoxy)phenoxy)-1,3-dimethyl-2-oxo-2,3-dihydro-1H-benzo[d]imidazol-5-yl)-1,2-dimethyl-1H-imidazole-4-sulfonamide]	6.00 to 7.00
8.00 to 9.00	7.00 to 7.96	7.00 to 7.96	8.00 to 9.00	CCCOc1cccc(Oc2cc3c(cc2NS(=O)(=O)c2ccc(OC)c(OC)c2)n(C)c(=O)n3C)c1 [Example 110, N-(1,3-dimethyl-2-oxo-6-(3-propoxyphenoxy)-2,3-dihydro-1H-benzo[d]imidazol-5-yl)-3,4-dimethoxybenzenesulfonamide]	7.00 to 8.00
8.00 to 9.00	8.00 to 9.00	7.00 to 7.96	8.00 to 9.00	Cn1c(=O)n(C)c2cc(Oc3cccc(OCC(F)(F)F)c3)c(NS(=O)(=O)c3cccnc3)cc21 [Example 125, N-(1,3-dimethyl-2-oxo-6-(3-(2,2,2-trifluoroethoxy)phenoxy)-2,3-dihydro-1H-benzo[d]imidazol-5-yl)pyridin-3-sulfonamide]	7.00 to 8.00
–	–	–	–	CCCOc1cc(OCCCCNC)cc(Oc2cc3c(cc2NS(=O)(=O)c2ccc(OC)c(OC)c2)n(C)c(=O)n3C)c1 [Example 249, N-(1,3-dimethyl-6-{3-[4-(methylamino)butoxy]-5-propoxyphenoxy}-2-oxo-2,3-dihydro-1H-1,3-benzodiazol-5-yl)-3,4-dimethoxybenzene-1-sulfonamide]	7.00 to 8.00
–	–	–	–	CCCOc1cc(OCCCCN2CCCC2)cc(Oc2cc3c(cc2NS(=O)(=O)c2ccc(OC)c(OC)c2)n(C)c(=O)n3C)c1 [Example 250, N-(1,3-dimethyl-2-oxo-6-{3-propoxy-5-[4-(pyrrolidin-1-yl)butoxy]phenoxy}-2,3-dihydro-1H-1,3-benzodiazol-5-yl)-3,4-dimethoxybenzene-1-sulfonamide]	7.00 to 8.00
–	–	–	–	CCCOc1cc(OCCCCN2CCC2)cc(Oc2cc3c(cc2NS(=O)(=O)c2ccc(OC)c(OC)c2)n(C)c(=O)n3C)c1 [Example 251, N-(6-{3-[4-(azetidin-1-yl)butoxy]-5-propoxyphenoxy}-1,3-dimethyl-2-oxo-2,3-dihydro-1H-1,3-benzodiazol-5-yl)-3,4-dimethoxybenzene-1-sulfonamide]	8.00 to 9.00
–	–	–	–	CCCOc1cc(OCCCCN)cc(Oc2cc3c(cc2NS(=O)(=O)c2cccc(C(=O)OC)c2)n(C)c(=O)n3C)c1 [Example 252, Methyl 3-({6-[3-(4-aminobutoxy)-5-propoxyphenoxy]-1,3-dimethyl-2-oxo-2,3-dihydro-1H-1,3-benzodiazol-5-yl}sulfamoyl)benzoate]	7.00 to 8.00
–	–	–	–	CCCOc1cc(OCCCCN(C)C)cc(Oc2cc3c(cc2NS(=O)(=O)c2cccc(C(=O)O)c2)n(C)c(=O)n3C)c1 [Example 253, 3-(N-(6-(3-(4-(dimethylamino)butoxy)-5-propoxyphenoxy)-1,3-dimethyl-2-oxo-2,3-dihydro-1H-benzo[d]imidazol-5-yl)sulfamoyl)benzoic acid]	7.00 to 8.00
–	–	–	–	CCCOc1cc(OCCCC[N+](C)(C)C)cc(Oc2cc3c(cc2NS(=O)(=O)c2ccc(OC)c(OC)c2)n(C)c(=O)n3C)c1 [Example 254, 4-(3-((6-(3,4-dimethoxyphenylsulfonamido)-1,3-dimethyl-2-oxo-2,3-dihydro-1H-benzo[d]imidazol-5-yl)oxy)-5-propoxyphenoxy)-N,N,N-trimethylbutan-1-aminium 2,2,2-trifluoroacetate]	8.00 to 9.00

SMILES	pKd (TRIM24)	pKd (BRPF2)	pKd (BRPF3)	pKd (BRPF1)	pIC50 [1]
Cc1nc(S(=O)(=O)Nc2cc3c(cc2Oc2cccc(OCC(C)C)c2)n(C)c(=O)n3C)cn1C [Example 45, N-(6-(3-isobutoxyphenoxy)-1,3-dimethyl-2-oxo-2,3-dihydro-1H-benzo[d]imidazol-5-yl)-1,2-dimethyl-1H-imidazole-4-sulfonamide]	8.00 to 9.00	7.00 to 7.96	7.00 to 7.96	7.00 to 7.96	7.00 to 8.00

From patent US20160060260A1, “BROMODOMAIN INHIBITORS FOR TREATING DISEASE” (Board of Regents, The University of Texas System, priority 2014, published 2016)
